Experimental data taken from ChEMBL document CHEMBL1139125, “N-Benzyl-N-(tetrahydro-2H-pyran-4-yl)pyrrolidin-3-amines as selective dual serotonin/noradrenaline reuptake inhibitors” (Bioorg Med Chem Lett, 2007).

Assays:
in vitro [1] = details: human, liver microsomes
in vitro [2] = details: human, hepatocytes

Row | half-life (in vitro [1]) | half-life (in vitro [2]) | SMILES
1 | > 2 h | – | Cc1cccc(CN(C2CCOCC2)[C@H]2CCNC2)c1C
2 | > 2 h | – | Cc1cccc(CN(C2CCOCC2)[C@@H]2CCNC2)c1C
3 | > 2 h | – | FC(F)(F)c1ccccc1CN(C1CCOCC1)[C@H]1CCNC1
4 | > 2 h | – | Clc1cccc(CN(CC2CC2)[C@H]2CCNC2)c1Cl
5 | > 2 h | – | Clc1cccc(CN(CC2CC2)[C@@H]2CCNC2)c1Cl
6 | > 2 h | – | Cc1ccccc1CN(C1CCOCC1)[C@H]1CCNC1
7 | 1.02 h | – | Clc1cccc(CN(Cc2ccccn2)[C@H]2CCNC2)c1Cl
8 | 0.233 h | – | Cc1cccc(CN(Cc2ccccn2)[C@H]2CCNC2)c1C
9 | > 2 h | 1.38 h | c1ccc(-c2ccccc2CN(C2CCOCC2)[C@H]2CCNC2)cc1
10 | 0.4 h | – | Cc1cccc(CN(Cc2ccccn2)[C@@H]2CCNC2)c1C
11 | > 2 h | 1.18 h | Cc1cccc(CN(C2CCOCC2)[C@H]2CCNC2)c1Cl
12 | > 2 h | > 4 h | Cc1c(CN(C2CCOCC2)[C@H]2CCNC2)cccc1C(F)(F)F
13 | 1.57 h | – | COc1cccc(CN(C2CCOCC2)[C@H]2CCNC2)c1C
14 | > 2 h | – | Fc1cccc(CN(C2CCOCC2)[C@H]2CCNC2)c1C(F)(F)F
15 | > 2 h | 1.73 h | Cc1c(Cl)cccc1CN(C1CCOCC1)[C@H]1CCNC1
